≈ marks a conversion by molar mass, not a printed value.
Assays:
[1] = test system: Staphylococcus aureus (ATCC 6538); assay: Antibacterial liquid MIC determination, S. aureus; format: cell-based; details: ATCC6538, Gram-positive
[2] = test system: Cryptococcus neoformans (DSM11959); assay: MIC assay against C. neoformans; format: cell-based; details: lowest concentration totally inhibiting growth, 35 °C, 24–48 h
in vitro [3] = details: human, Caco-2
[4] = test system: various human cells, i.e., A498, BEAS-2B, Caco-2, HaCaT, and HepG2
in vitro [5] = details: human
in vitro [6] = details: human; remark: listed apart in the source
in vitro [7] = details: human; remark: listed apart in the source
in vitro [8] = details: human; remark: listed apart in the source
in vitro [9] = details: human; remark: listed apart in the source
[10] = test system: Microdochium bolleyi (DSM 62073); assay: MIC assay, filamentous fungus M. bolleyi; format: cell-based; details: DSM62073, DSM 62073, plant pathogen, 25 °C, 48–72 h
[11] = test system: Aspergillus flavus (DSM 1959); assay: MIC assay, filamentous fungus A. flavus; format: cell-based; details: DSM1959, DSM 1959, plant pathogen, 25 °C, 48–72 h
[12] = test system: Penicillium verrucosum (DSM 12639); assay: MIC assay, filamentous fungus P. verrucosum; format: cell-based; details: DSM12639, DSM 12639, plant pathogen, 25 °C, 48–72 h
A. fumigatus (DSM 819) = assay: MIC assay, filamentous fungus A. fumigatus; format: cell-based; details: Aspergillus fumigatus, DSM819; DSM 819, human pathogen; 35 °C, 24–48 h
[13] = test system: Candida albicans (DSM 10697); assay: MIC assay, pathogenic yeast C. albicans; format: cell-based; details: DSM10697, 35 °C, 24–48 h
[14] = test system: Colletotrichum graminicola (DSM 63127); assay: MIC assay, filamentous fungus C. graminicola; format: cell-based; details: DSM63127, DSM 63127, plant pathogen, 25 °C, 48–72 h
Magnaporthe oryzae = assay: microbe, parasite or virus in culture; format: cell-based; details: Pyricularia oryzae, read-out: MIC M. oryzae
[15] = test system: Trichophyton rubrum (DSM16111); assay: MIC assay, filamentous fungus T. rubrum; format: cell-based; details: DSM16111, human pathogen, 35 °C, 24–48 h
[16] = test system: Candida tropicalis (DSM 9419); assay: MIC assay, pathogenic yeast C. tropicalis; format: cell-based; details: DSM9419, 35 °C, 24–48 h
[17] = test system: Candida glabrata (DSM 11226); assay: MIC assay, pathogenic yeast C. glabrata; format: cell-based; details: Nakaseomyces glabratus, DSM11226, 35 °C, 24–48 h
[18] = test system: Candida auris (DSM 21092); assay: MIC assay, pathogenic yeast C. auris; format: cell-based; details: Candidozyma auris, DSM21092, 35 °C, 24–48 h
[19] = test system: Fusarium graminearum (DSM 1095); assay: microbe, parasite or virus in culture; format: cell-based; details: DSM1095, read-out: MIC F. graminearum
[20] = Cryptococcus neoformans, DSM11959, C. neoformans DSM 11959

## CCN1C/C(=C\c2cnc3ccccc3c2)C(=O)/C(=C/c2cnc3ccccc3c2)C1 [2l]
[1]
  MIC: 250 µM (≈ 101 µg/mL)
[2]; [20]
  MIC: 250 µM (≈ 101 µg/mL)
In vitro [3]
  CC50 at 48 h: 30 µM

## CCCCOc1ccc(/C=C2\CC(C(C)(C)C)C/C(=C\c3ccc(OCCCC)cc3OCCCC)C2=O)c(OCCCC)c1 (centres unmarked) [10h]
[2]; [20]
  MIC: > 250 µM

## CCCCOc1ccc(/C=C2/C(=O)/C(=C/c3ccc(OCCCC)cc3OCCCC)C3CCC2N3C)c(OCCCC)c1 [2n]
[2]; [20]
  MIC: > 250 µM

## COc1ccc(/C=C2\CN(Cc3ccccc3)C/C(=C\c3ccc(OC)cc3OC)C2=O)c(OC)c1 [3a]
[2]; C. neoformans DSM 11959
  MIC: >250 µM
[2]; [20]
  MIC: > 250 µM

## CCN1C/C(=C\c2ccc(OC)cc2)C(=O)/C(=C/c2ccc(OC)cc2)C1 [1a, 1-ethyl-3,5-bis((E)-4-methoxybenzylidene)piperidin-4-one]
[4]
  CC50 (range depending on the cell model): 64.9 to >1000
[2]; [20]
  MIC: 125 µM (≈ 45.4 µg/mL)
In vitro [3]
  CC50 at 48 h: 314 µM

## C=CCOc1ccc(/C=C2\CN(CC)C/C(=C\c3ccc(OCC=C)cc3OCC=C)C2=O)c(OCC=C)c1 [2g]
[2]; C. neoformans DSM 11959
  MIC: >250 µM
[2]; [20]
  MIC: > 250 µM

## CCCCOc1ccc(/C=C2\CN(C3CC3)C/C(=C\c3ccc(OCCCC)cc3OCCCC)C2=O)c(OCCCC)c1 [4h]
In vitro [5]
  CC50 at 48 h: > 1000 µM
In vitro [6]
  CC50 at 48 h: > 1000 µM
In vitro [7]
  CC50 at 48 h: > 1000 µM
In vitro [8]
  CC50 at 48 h: > 1000 µM
[2]; [20]
  MIC: 250 µM (≈ 151 µg/mL)
In vitro [9]
  CC50 at 48 h: > 1000 µM
In vitro [3]
  CC50 at 48 h: > 1000 µM

## CCN1C/C(=C\c2ccc(OC)cc2OC)C(=O)/C(=C/c2ccc(OC)cc2OC)C1 [2a, 3,5-bis((E)-2,4-dimethoxybenzylidene)-1-ethylpiperidin-4-one]
[2]; C. neoformans DSM 11959
  MIC: >250 µM
[2]; [20]
  MIC: > 250 µM

## CCN1C/C(=C\c2ccc(C)cc2)C(=O)/C(=C/c2ccc(C)cc2)C1 [1b, 1-ethyl-3,5-bis((E)-4-methylbenzylidene)piperidin-4-one]
[2]; [20]
  MIC: 250 µM (≈ 82.9 µg/mL)
In vitro [3]
  CC50 at 48 h: 86.2 µM

## CCCCOc1ccc(/C=C2\CN(S(C)(=O)=O)C/C(=C\c3ccc(OCCCC)cc3OCCCC)C2=O)c(OCCCC)c1 [6h]
[2]; C. neoformans DSM 11959
  MIC: >250 µM
[2]; [20]
  MIC: > 250 µM

## CCCCOc1ccc(/C=C2\CN(Cc3ccccc3)C/C(=C\c3ccc(OCCCC)c(OCCCC)c3)C2=O)cc1OCCCC [3iso-h]
[10]
  MIC: 62.5 µM (≈ 40.9 µg/mL)
[11]
  MIC: > 250 µM
[12]
  MIC: 125 µM (≈ 81.7 µg/mL)
[2]; [20]
  MIC: 62.5 µM (≈ 40.9 µg/mL)
A. fumigatus (DSM 819)
  MIC: 125 µM (≈ 81.7 µg/mL)
[13]
  MIC: 250 µM (≈ 163 µg/mL)
[14]
  MIC: 125 µM (≈ 81.7 µg/mL)
Magnaporthe oryzae
  MIC: 15.6 µM (≈ 10.2 µg/mL)
[15]
  MIC: 125 µM (≈ 81.7 µg/mL)
[16]
  MIC: 125 µM (≈ 81.7 µg/mL)
In vitro [3]
  CC50 at 48 h: > 1000 µM
[17]
  MIC: 62.5 µM (≈ 40.9 µg/mL)
[18]
  MIC: 31.2 µM (≈ 20.4 µg/mL)
[19]
  MIC: > 250 µM

## CCN1C/C(=C\c2ccc(C#N)cc2)C(=O)/C(=C/c2ccc(C#N)cc2)C1 [1c]
[2]; [20]
  MIC: 250 µM (≈ 88.4 µg/mL)
In vitro [3]
  CC50 at 48 h: 70.3 µM

## CCCCOc1ccc(/C=C2\CN(C(=O)OCc3ccccc3)C/C(=C\c3ccc(OCCCC)cc3OCCCC)C2=O)c(OCCCC)c1 [7h]
[2]; C. neoformans DSM 11959
  MIC: >250 µM
[2]; [20]
  MIC: > 250 µM

## CCCCOc1ccc(/C=C2\CC(C)C/C(=C\c3ccc(OCCCC)cc3OCCCC)C2=O)c(OCCCC)c1 (centres unmarked) [9h]
[2]; [20]
  MIC: > 250 µM

Source: publication PMC12466757, “1,5-Diarylidene-4-Piperidones as Promising Antifungal Candidates Against Cryptococcus neoformans” (Antibiotics, 2025)
